# Laboratory results as given in US8455214B2, “Methods for determining chemotherapeutic agents targeting alpha-glucan pathways and uses thereof” (priority 2009, dated 2013).
# Where two headings read alike, the source gives them in different places.
# How the values were obtained:
# [1] = system: M. smegmatis ΔglgE mutant; assay: Sensitivity of the M. smegmatis ΔglgE mutant toward mono- and disaccharides (growth on Middlebrook 7H10 agar); type: cell-based; details: for growth of the mutant: glucose disaccharides
# Text: FIG. 2A-2F. Characterization of the M. smegmatis ΔglgE mutant. […] (B). Trehalose sensitivity of the ΔglgE mutant. […] (D) Trehalose sensitivity of the ΔglgB mutant. (E) M1P accumulation in the ΔglgE and ΔglgB mutants determined by TLC/autoradiography analysis of extracts from cells labeled with 14C-trehalose for the indicated time intervals. (F) Maltose accumulation in Δpep2 mutant strains determined by TLC/autoradiography analysis of cell extracts from cells labeled with 14C-trehalose for 30 min. In (B) and (D), equal dilutions of cultures were spotted onto Middlebrook 7H10 agar plates containing trehalose. Comp. refers to mutants complemented with the respective WT genes.
# The sensitivity was highly specific, since growth of the mutant was not inhibited by other glucose disaccharides like maltose or α,β-trehalose [α-D-glucopyranosyl-(1→1)-β-D-glucopyranoside].
# Mtb GlgE = Mtb GlgE (Mycobacterium tuberculosis, UniProt P9WQ17); type: biochemical; details: for Km: read-out: Km^app
# Mtb GlgE, sequence (P9WQ17 whole entry): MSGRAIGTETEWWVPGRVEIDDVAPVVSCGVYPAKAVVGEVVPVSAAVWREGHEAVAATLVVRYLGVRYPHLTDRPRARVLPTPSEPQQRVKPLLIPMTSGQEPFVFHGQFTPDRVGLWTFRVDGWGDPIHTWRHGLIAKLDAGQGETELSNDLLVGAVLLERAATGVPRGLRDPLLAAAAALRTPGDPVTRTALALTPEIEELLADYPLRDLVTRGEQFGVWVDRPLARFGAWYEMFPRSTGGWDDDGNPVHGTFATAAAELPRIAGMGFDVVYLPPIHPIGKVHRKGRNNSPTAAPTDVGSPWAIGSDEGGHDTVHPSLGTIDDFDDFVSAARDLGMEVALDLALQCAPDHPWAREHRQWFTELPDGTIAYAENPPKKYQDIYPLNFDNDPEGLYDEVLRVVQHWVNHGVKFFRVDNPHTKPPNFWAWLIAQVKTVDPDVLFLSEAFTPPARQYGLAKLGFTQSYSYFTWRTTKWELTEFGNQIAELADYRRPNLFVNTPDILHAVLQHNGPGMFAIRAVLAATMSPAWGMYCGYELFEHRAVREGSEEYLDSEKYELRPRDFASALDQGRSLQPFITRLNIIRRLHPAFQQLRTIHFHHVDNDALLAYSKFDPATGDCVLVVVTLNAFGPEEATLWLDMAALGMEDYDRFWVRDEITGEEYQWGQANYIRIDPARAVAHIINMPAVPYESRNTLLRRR
# Mtb WT = type: cell-based, Mycobacterium tuberculosis
# [2] = system: Mtb ΔtreS ΔglgE (pMV361::treS); type: cell-based, Mycobacterium tuberculosis; details: in the presence of 5 mM VA; TLC
# trehalose synthase TreS = details: reference 13; cited from earlier work
# Mtb = details: reference 14; cited from earlier work
# [3] = system: M. smegmatis ΔglgB mutant; type: cell-based; details: to a somewhat smaller extent than ΔglgE
# [4] = donor M1P with 1 mM maltohexaose
# [5] = acceptor maltohexaose with 1 mM M1P
molecule,measurement,setting,value
OC[C@H]1O[C@H](O[C@H]2[C@H](O)[C@@H](O)C(O)O[C@@H]2CO)[C@H](O)[C@@H](O)[C@@H]1O (mixture of isomers) [maltose],growth of the mutant,[1],not inhibited
"O=P(O)(O)O[C@H]1O[C@H](CO)[C@@H](O[C@H]2O[C@H](CO)[C@@H](O)[C@H](O)[C@H]2O)[C@H](O)[C@H]1O [M1P, α-D-glucopyranosyl(1→4)-α-D-glucopyranosyl 1-phosphate]",kcat^app,Mtb GlgE; [4],1.26 ± 0.07 s⁻¹
same,Km,Mtb GlgE; [4],0.25 ± 0.05 mM
"OCC1=C[C@@H](N[C@H]2C[C@H](CO)[C@@H](O[C@H]3O[C@@H](CO)[C@H](O)[C@@H](O)[C@@H]3O)[C@H](O)[C@H]2O)[C@H](O)[C@@H](O)[C@@H]1O [VA, Validamycin A]",tolerated concentration of the inhibitor,Mtb WT,10 mM
same,M1P accumulation,[2],only low levels
same,inhibition of TreS,trehalose synthase TreS,inhibit
O=P(O)(O)O [inorganic phosphate],phosphate converted to M1P,Mtb GlgE,~10%
same,Km,"Mtb GlgE; inorganic phosphate, reverse reaction, estimated",6 ± 4 mM
NNC(=O)c1ccncc1 [isoniazid],1 mg/l expressed as multiple of the MIC,Mtb,20 times the MIC
"OC[C@H]1O[C@H](O[C@H]2O[C@H](CO)[C@@H](O)[C@H](O)[C@H]2O)[C@H](O)[C@@H](O)[C@@H]1O [trehalose, α-D-glucopyranosyl-(1→1)-α-D-glucopyranoside]",concentration that completely inhibited growth,[1],0.5 mM
same,growth of the mutant,[1],bacteriostatic growth arrest
same,sensitivity of the mutant,[3],sensitive
"OC[C@H]1O[C@@H](O[C@H]2O[C@H](CO)[C@@H](O)[C@H](O)[C@H]2O)[C@H](O)[C@@H](O)[C@@H]1O [α,β-trehalose, α-D-glucopyranosyl-(1→1)-β-D-glucopyranoside]",growth of the mutant,[1],not inhibited
O=P(O)(O)OC1OC(CO)C(OC2OC(CO)C(O)C(O)C2O)C(O)C1O (stereo not drawn) [β anomer of M1P],GlgE activity as donor,Mtb GlgE,no activity
maltohexaose,kcat^app,Mtb GlgE; [5],7.5 ± 0.4 s⁻¹
same,Km,Mtb GlgE; [5],13.3 ± 2.4 mM
same,kcat^app,Mtb GlgE; acceptor maltohexaose with 5 mM M1P,15.4 ± 1.1 s⁻¹
same,Km,"Mtb GlgE; acceptor maltohexaose with 5 mM M1P, pH 7.0, 37° C",35 ± 8 mM
